Test results from patent publication US20250057959A1, “PHOSPHANE GOLD(I)-N-HETEROCYCLIC CARBENE COMPLEXES FOR TREATING CANCER” (KING FAHD UNIVERSITY OF PETROLEUM AND MINERALS, priority 2023, published 2025).

Key:
Assay type in all cases: cell-based, human
[1] = tested on: A2780; experiment: MTT cell viability assay, A2780; details: for IC50: 72 hours treatment, MTT; for Activity compared with cisplatin or auranofin in A2780 cells: comparison of IC50, Table 8
Text: (§1) Human epithelial ovarian cancer A2780 cell line and its cisplatin-resistant clone A2780cis were obtained from Sigma-Aldrich (Milano, Italy). SKOV3 (HTB-77) cells were from the American Type Culture Collection (ATCC). The two cell lines were selected to reflect the two different stages of OvCa and different sensitivity to cisplatin. A2780 cell lines were derived from the ovarian tumor tissue of an untreated patient, while SKOV3 was from the ascitic fluids (after metastasis). Cells were authenticated in the laboratory using PowerPlex 16 HS system (Promega) and GeneMapper ID version 3.2.1 to identify DNA short tandem repeats. Cell lines were cultured in RPMI-1640 medium containing 10% fetal bovine serum (FBS) (Gibco, Thermo Fisher Scientific, U.S.A), 1% (v/v) of penicillin (10,000 units/mL)-streptomycin (10 mg/mL), and 1% (v/v) L-glutamine (200 mM) (all from Sigma- Aldrich) at 37° C. in a 5% CO2 fully humidified atmosphere. A2780cis cells were continuously exposed to 1 μM cisplatin to maintain cisplatin resistance. Adipose-derived stem cells (ADSCs) were purchased from Lonza and maintained in mesenchymal-stem-cell growth medium Bulletkit MSCGM (Lonza, Verviers, Belgium).
(§2) 4.0×10^3/mL A2780, A2780cis, and SKOV3 cells were seeded in 96-well microplates in 100 μL of culture medium. Cells were allowed to adhere for 24 hours and then were treated in triplicate with increasing concentrations of gold compounds (0-1 μM). Cisplatin was included as a reference drug. Cell viability was evaluated using 3-(4,5-dimethylthiazol-2-yl)-2,5-diphenyltetrazolium bromide (MTT) assay (Sigma-Aldrich) after 72 hours of treatment. Half maximal inhibitory concentrations (IC50) were calculated using the CalcuSyn software version 2 (Biosoft, Ferguson, MO, USA). Fold resistance was calculated as the ratio of the IC50 of the A2780cis to that of the parental cell line A2780.

[2] = tested on: A2780cis; experiment: MTT cell viability assay, cisplatin-resistant A2780cis; details: for IC50: 72 hours treatment, MTT; for Fold resistance (A2780cis/A2780): IC50 A2780cis/IC50 A2780
Text: Human epithelial ovarian cancer A2780 cell line and its cisplatin-resistant clone A2780cis were obtained from Sigma-Aldrich (Milano, Italy). SKOV3 (HTB-77) cells were from the American Type Culture Collection (ATCC). The two cell lines were selected to reflect the two different stages of OvCa and different sensitivity to cisplatin. A2780 cell lines were derived from the ovarian tumor tissue of an untreated patient, while SKOV3 was from the ascitic fluids (after metastasis). […] Cell lines were cultured in RPMI-1640 medium containing 10% fetal bovine serum (FBS) (Gibco, Thermo Fisher Scientific, U.S.A), 1% (v/v) of penicillin (10,000 units/mL)-streptomycin (10 mg/mL), and 1% (v/v) L-glutamine (200 mM) (all from Sigma- Aldrich) at 37° C. in a 5% CO2 fully humidified atmosphere. […] Cisplatin was included as a reference drug. […] Fold resistance was calculated as the ratio of the IC50 of the A2780cis to that of the parental cell line A2780.

[3] = tested on: SKOV3 cells; experiment: MTT cell viability assay, SKOV3; details: 72 hours treatment
Text: as §1, §2

[4] = tested on: A2780 and A2780cis cells; experiment: Apoptosis by flow cytometry (annexin-V/7AAD, caspase-3,7, BAX, Bcl-2); details: 48 hours; complex 6 and auranofin at IC50 and IC75, cisplatin 0.15 μM and 0.50 μM
Procedure: (§3) Results were detected by flow cytometry on a BD FACSCanto II flow cytometer. Data were analyzed using BD FACSDiva version 8.0.1 software (BD Biosciences) unless otherwise indicated. To evaluate apoptosis, tumor cells were treated for 48 hours and then stained for 15 minutes with FITC annexin-V (Thermo Fisher Scientific) and 7AAD (BD Pharmingen). […] For B-cell lymphoma/leukemia-2 (Bcl-2) and Bcl-2 associated x protein (Bax) evaluation, cells were fixed and permeabilized using FIX & PERM cell fixation and cell permeabilization kit (Life Technologies). […] The distribution of cells in different cell cycle phases was quantified using ModFit LT 4.0 software (Verity Software House, Topsham, ME, USA).

[5] = tested on: A2780 and A2780cis cells; experiment: mitROS generation (MitoSOX red), flow cytometry
Procedure: as §3

[6] = tested on: A2780 and A2780cis cells; experiment: DNA double-strand breaks, γ-H2AX western blot
Procedure: Whole-cell lysates were prepared using cold RIPA buffer [150 mM NaCl, 50 mM Tris-HCl (pH 8), 0.1% SDS, 1% Igepal, and 0.5% desoxycholate sodium] containing a protease inhibitor cocktail (Roche Diagnostics S.p.a., Milan, Italy), phosphatase inhibitors 1 mM Na3VO4 and 1 mM NaF (Sigma-Aldrich). Protein concentrations were determined using the BioRad protein assay (Bio-Rad Laboratories, Inc., CA, USA). Equal amounts of proteins were mixed with Laemmli buffer, separated in 4-20% SDS-PAGE (Criterion Precast Gel, BioRad), and blotted onto a nitrocellulose membrane (Amersham, GE Healthcare). Membrane strips were blocked with EveryBilot blocking buffer (Bio-Rad) and incubated at 4° C. overnight with primary antibodies probed with the appropriate antibodies (Table 2) and developed using Immobilon Western chemioluminescent HRP substrate. Images were acquired using a ChemiDoc XRS system (Bio-Rad).

[7] = tested on: A2780 cells; experiment: Cell cycle analysis (PI, flow cytometry), A2780; details: for Effect on cell cycle phases: A2780, 24 hours, auranofin 0.5 μM (IC50), cisplatin 0.50 μM
Procedure: as §3

[8] = tested on: A2780cis; experiment: Cell cycle analysis (PI, flow cytometry), A2780cis; details: 24 hours
Procedure: as §3

[9] = tested on: SKOV3-MCTSs; experiment: SKOV3-MCTS spheroid volume
Procedure: To generate single spheroids with defined size, 1.0×10^3/mL SKOV3 cells were seeded 4 days under nonadherent conditions in U-bottom 96-well plates coated twice with 20 mg/mL of poly(2-hydroxyethyl methacrylate) (poly-HEMA; Sigma) in 95% ethanol. Spheroid size was measured at days 0, 3, and 7 after drug treatment initiation using an inverted microscope (Eclipse TS/100, Nikon, Tokyo, Japan) with photomicrographic systems DS camera control unit DS-L2. Spheroid volumes were calculated using the formula (width^2×length×3.14)/6.

[10] = tested on: A2780 cells; experiment: ROS generation (MitoSOX red), flow cytometry, A2780; details: cisplatin 0.50 μM; from 6.4%
Procedure: 2.0×10^5/mL A2780 and A2780cis cells were seeded in 6-well plates in complete medium and treated with complex 6 (0.15 μM and 0.5 μM). Results were detected by flow cytometry on a BD FACSCanto II flow cytometer. Data were analyzed using BD FACSDiva version 8.0.1 software (BD Biosciences) unless otherwise indicated. To evaluate apoptosis, tumor cells were treated for 48 hours and then stained for 15 minutes with FITC annexin-V (Thermo Fisher Scientific) and 7AAD (BD Pharmingen). […] For B-cell lymphoma/leukemia-2 (Bcl-2) and Bcl-2 associated x protein (Bax) evaluation, cells were fixed and permeabilized using FIX & PERM cell fixation and cell permeabilization kit (Life Technologies). For ROS generation, cells were stained with 5 μM MitoSOX red mitochondrial superoxide indicator (ThermoFisher Scientific) in a working solution for 30 minutes at 37° C. Cell cycle analysis was performed after 24 hours treatment with complex 6. Cells were harvested, fixed in cold 70% ethanol for 15 minutes, and stained with propidium iodide (PI) solution ([…] PI, 0.1% NP-40, 100 µg/mL PureLink RNase A, 0.1% sodium citrate) for 1 hour. The distribution of cells in different cell cycle phases was quantified using ModFit LT 4.0 software (Verity Software House, Topsham, ME, USA).

Row | SMILES | IC50 [1] [µM] | IC50 [2] [µM] | Fold resistance (A2780cis/A2780) [2] | Activity compared with cisplatin or auranofin in A2780 cells [1] | other results
1 | CC[PH](CC)(CC)[Au][S][C@@H]1O[C@H](COC(C)=O)[C@@H](OC(C)=O)[C@H](OC(C)=O)[C@H]1OC(C)=O [Auranofin, (2,3,4,6-tetra-O-acetyl-L-thio-β-D-glycopyranosato-S-)-(triethylphosphane)gold(I), reference compound] | 0.51 ± 0.07 | 1.91 ± 0.22 | 3.7 |  | IC50 ([1]; listed as auranofin): 0.5 µM; IC50 ([2]; listed as auranofin): 1.9 µM; IC50 [3]: 2.3 µM; Apoptosis (annexin-V / 7AAD positive cells) [4]: less active in inducing apoptosis in cisplatin-resistant A2780cis than in A2780 cells; mitROS generation [5]: induced ROS generation; DNA double-strand breaks (γH2AX) [6]: induced; sub-G0/G1 phase (DNA fragmentation) ([7]; A2780, 0.8 μM (IC75), 24 hours): 11%; Effect on cell cycle phases [7]: decreased the G1 phase; sub-G0/G1 phase (DNA fragmentation) ([8]; 2.5 μM (IC75)): 1.7%; Effect on cell cycle phases [8]: slightly decreased the G1 phase and increased the S phase; Effect on SKOV3-MCTSs at 1 μM ([9]; 1 μM): did not reduce SKOV3-MCTS volume; Concentration at which SKOV3-MCTS growth inhibition was seen ([9]; 72 hours): higher than 5 μM
2 | N.N.[Cl][Pt][Cl] [Cisplatin, reference compound] | 1.5 | 10.4 | 6.93 |  | IC50 [3]: 5.4 µM; Apoptosis (annexin-V / 7AAD positive cells) [4]: did not induce apoptosis; ROS generation (positive cells) [10]: 17.4%; DNA double-strand breaks (γH2AX) [6]: did not induce; Effect on cell cycle phases [7]: slight increase of the G2/M phase; Decrease of SKOV3-MCTS growth with respect to control ([9]; 1 μM, 7 days): 16%
3 | CC(C)c1cccc(C(C)C)c1-n1ccn(-c2c(C(C)C)cccc2C(C)C)[c]1=[Au+][PH](CCC#N)(CCC#N)c1ccccc1.F[P-](F)(F)(F)(F)F [Complex 1, [Au(IPr)(C12H13N2P)] PF6] | 2 ± 0.19 | 3.55 ± 0.35 | 1.78 |  | 
4 | CC(C)c1cccc(C(C)C)c1-n1ccn(-c2c(C(C)C)cccc2C(C)C)[c]1=[Au+][PH](c1ccccc1)(c1ccccc1)[C@@H]1CCCC[C@H]1N.F[P-](F)(F)(F)(F)F [Complex 2, [Au(IPr)(C18H22NP)] PF6] | 0.5 ± 0.04 | 0.8 ± 0.04 | 1.6 | more active than cisplatin | 
5 | CC(C)c1cccc(C(C)C)c1-n1ccn(-c2c(C(C)C)cccc2C(C)C)[c]1=[Au+][PH](c1ccccc1)(c1ccccc1)C(c1ccccc1)C(N)c1ccccc1.F[P-](F)(F)(F)(F)F (stereo not shown) [Complex 3, [Au(IPr)(C26H24NP)] PF6] | 0.78 ± 0.06 | 1.14 ± 0.1 | 1.46 | more active than cisplatin | 
6 | CC(C)c1cccc(C(C)C)c1-n1ccn(-c2c(C(C)C)cccc2C(C)C)[c]1=[Au+][PH](CC(N)c1ccccc1)(c1ccccc1)c1ccccc1.F[P-](F)(F)(F)(F)F (stereo not shown) [Complex 4, [Au(IPr)(C20H20NP)] PF6] | 0.82 ± 0.05 | 1.17 ± 0.15 | 1.43 | more active than cisplatin | 
7 | CC(C)c1cccc(C(C)C)c1-n1ccn(-c2c(C(C)C)cccc2C(C)C)[c]1=[Au+][PH](CC(N)C(C)(C)C)(c1ccccc1)c1ccccc1.F[P-](F)(F)(F)(F)F (stereo not shown) [Complex 5, [Au(IPr)(C18H24NP)] PF6] | 0.75 ± 0.07 | 0.92 ± 0.08 | 1.23 | more active than cisplatin | 
8 | CC(C)c1cccc(C(C)C)c1-n1ccn(-c2c(C(C)C)cccc2C(C)C)[c]1=[Au+][PH](CCCN)(c1ccccc1)c1ccccc1.F[P-](F)(F)(F)(F)F [Complex 7, [Au(IPr)(C15H18NP)] PF6] | 1.42 ± 0.12 | 1.8 ± 0.15 | 1.27 |  | 
